In the supplement of paper PMC13380429:

Tests used:
[1] = tested on: A549-ACE2 infected with SARS-CoV-2; assay: SARS-CoV-2 infection rate relative to DMSO; higher = more infection; settings: 24 h
U2OS [2] = assay: drug sensitivity score (DSS) for viability; higher = more toxic; extreme values may be limits of the assay; settings: 72 h
HepG2 [3] = assay: as above; settings: 72 h
Vero E6 [4] = assay: as above; settings: 72 h
Calu-3 [5] = assay: as above; settings: 72 h
Caco-2 [6] = assay: as above; settings: 72 h
U2OS [7] = assay: relative viability EC50 (midpoint between 100% and the lowest measured viability); higher = less toxic; settings: 72 h
HepG2 [8] = assay: as above; settings: 72 h
Vero E6 [9] = assay: as above; settings: 72 h
Calu-3 [10] = assay: as above; settings: 72 h
Caco-2 [11] = assay: as above; settings: 72 h
A549-ACE2 = assay: drug-induced phospholipidosis relative to tamoxifen; higher = more phospholipidosis
U2OS [12] = assay: cell viability relative to DMSO; higher = less toxic; settings: 72 h
HepG2 [13] = assay: as above; settings: 72 h
Vero E6 [14] = assay: as above; settings: 72 h
Calu-3 [15] = assay: as above; settings: 72 h
Caco-2 [16] = assay: as above; settings: 72 h
[17] = tested on: A549-ACE2 infected with SARS-CoV-2; assay: morphology score (similarity to uninfected cells); higher = more like uninfected cells; settings: 24 h
[18] = tested on: A549-ACE2 infected with SARS-CoV-2; assay: cell count relative to DMSO; higher = less toxic; settings: 24 h

C=CC(=O)N1CCN(C(=O)CNc2cc(I)c(Cl)cc2O)CC1 [K-Ras(G12C)-inhibitor-12]
Settings | SARS-CoV-2 infection rate, [1] [%] | cell count, [18] [%] | cell viability, Caco-2 [16] [%] | cell viability, Calu-3 [15] [%] | cell viability, HepG2 [13] [%] | cell viability, U2OS [12] [%] | cell viability, Vero E6 [14] [%] | morphology score, [17]
1 nM | – | – | 102 | 112 | 95.2 | 108 | 101 | –
10 nM | – | – | 96.3 | 103 | 98.1 | 96.9 | 107 | –
100 nM | – | – | 106 | 104 | 88.2 | 104 | 90.2 | –
0.3 µM | 74 | 109 | – | – | – | – | – | 0.34
1000 nM | – | – | 88.3 | 75.5 | 72.8 | 96.6 | 54.1 | –
3 µM | 86 | 93 | – | – | – | – | – | 0.05
10 µM | 76 | 93 | – | – | – | – | – | 0.03
10000 nM | – | – | 76.6 | 79.5 | 42.8 | 93.5 | 40.1 | –
30 µM | 77 | 85 | – | – | – | – | – | -0.03

Settings | drug sensitivity score | relative viability EC50 [µM]
Caco-2 [6] | 2.2 | –
Caco-2 [11] | – | > 10
Calu-3 [5] | 3.5 | –
Calu-3 [10] | – | > 10
HepG2 [3] | 6.5 | –
HepG2 [8] | – | 0.805
U2OS [2] | 0 | –
U2OS [7] | – | > 10
Vero E6 [4] | 9.6 | –
Vero E6 [9] | – | 0.388

drug-induced phospholipidosis [%], A549-ACE2
Settings | 0.3 µM | 0.833333 µM | 3.33333 µM | 6.66667 µM | 10 µM | 30 µM
24 h | 8.49 | 7.52 | 10 | 12 | 13.7 | 24
48 h | 5.08 | 2.66 | 7.02 | 10.2 | 11.5 | 19.6
72 h | 5.88 | 1.74 | 5.37 | 8.06 | 13.5 | 16

CC[C@@]1([C@H]2O[C@H]([C@H]3O[C@@](O)(CO)[C@H](C)C[C@@H]3C)C[C@H]2C)CC[C@H]([C@@]2(C)CC[C@]3(C[C@H](O)[C@@H](C)[C@@H]([C@H](C)[C@H](OC)[C@@H](C)C(=O)O)O3)O2)O1 [MONENSIN SODIUM]
Settings | SARS-CoV-2 infection rate, [1] [%] | cell count, [18] [%] | cell viability, Caco-2 [16] [%] | cell viability, Calu-3 [15] [%] | cell viability, HepG2 [13] [%] | cell viability, U2OS [12] [%] | cell viability, Vero E6 [14] [%] | morphology score, [17]
1 nM | – | – | 93.9 | 99 | 94.6 | 99.5 | 96.7 | –
10 nM | – | – | 93.4 | 93.1 | 107 | 96.2 | 103 | –
100 nM | – | – | 109 | 89.9 | 91.8 | 99.3 | 95.6 | –
0.3 µM | 50 | 114 | – | – | – | – | – | 0.72
1000 nM | – | – | 56.9 | 68 | 82.9 | 97.1 | 103 | –
3 µM | 61 | 108 | – | – | – | – | – | 0.85
10 µM | 25 | 115 | – | – | – | – | – | 0.83
10000 nM | – | – | 20.9 | 36.9 | 26.2 | 35.4 | 102 | –
30 µM | 17 | 119 | – | – | – | – | – | 0.82

Settings | drug sensitivity score | relative viability EC50 [µM]
Caco-2 [6] | 9.7 | –
Caco-2 [11] | – | 0.934
Calu-3 [5] | 7.5 | –
Calu-3 [10] | – | 0.789
HepG2 [3] | 6.8 | –
HepG2 [8] | – | 1.61
U2OS [2] | 3.9 | –
U2OS [7] | – | 2.83
Vero E6 [4] | 0 | –
Vero E6 [9] | – | > 10

drug-induced phospholipidosis [%], A549-ACE2
Settings | 0.3 µM | 0.833333 µM | 3.33333 µM | 6.66667 µM | 10 µM | 30 µM
24 h | -1.18 | -1.15 | 0.94 | 1.15 | -4.98 | -12.7
48 h | 5.4 | 3.73 | 5.09 | -3.84 | -2.31 | -14.7
72 h | 6.27 | 4.79 | 7.82 | – | – | –
